Assay results: ChEMBL document CHEMBL1142729 (J Med Chem, 2005)

Columns and labels:
Carbonic anhydrase 2 = Carbonic anhydrase 2 (Homo sapiens, UniProt P00918); assay: Inhibitory constant value for Carbonic anhydrase II in human determined in pH-shift assay
[1] = Inhibition concentration for carbonic anhydrase I and carbonic anhydrase II in rat determined in CO2 hydration assay

Question: For `NS(=O)(=O)OCC1Oc2ccccc2O1`, which IC50 (Carbonic anhydrase 2) is on record?
Answer: 0.28 µM

Question: For `CC1(C)O[C@@H]2[C@@H](CO[C@@]3(COS(N)(=O)=O)OC(C)(C)O[C@@H]23)O1` [TOPIRAMATE], which IC50 [1] is on record?
Answer: 8.9 µM
